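How tested: cells in 96-well plates exposed to compound for 48 hours at five concentrations. TGI is the concentration that stops growth completely.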

Among the data in PubChem BioAssay (NCI) are TGI values, retold here.

Among the test systems are A549 NSCLC; ACHN renal; CCRF-CEM leukemia; EKVX NSCLC; HCC-2998 colon; HCT-116 colon; HCT-15 colon; M14 melanoma; MCF7 breast; NCI-H226 lung; SF-268 CNS; SF-539 CNS; SK-MEL-2 melanoma; SN12C renal; SR leukemia; TK-10 renal; UACC-62 melanoma; SK-MEL-5 melanoma; UO-31 renal; A498 renal.
Holding throughout (experiment): NCI-60 cell line screen, 48 h

As for `C[C@H](NC(=O)CNC(=O)CCCCCC(=O)NCC(=O)N[C@@H](C)C(=O)OCc1ccccc1)C(=O)OCc1ccccc1`, the TGI with A549 NSCLC, with ACHN renal, in the assay on CCRF-CEM leukemia, with EKVX NSCLC, with HCC-2998 colon and in the assay on HCT-116 colon was over 100 µM each time. Further, the TGI in the assay with HCT-15 colon, in the assay with M14 melanoma, in the assay with MCF7 breast, in the assay on NCI-H226 lung, in the assay with SF-268 CNS and in the assay with SF-539 CNS was over 100 µM in each case. For the same compound, the TGI in the assay on SK-MEL-2 melanoma, in the assay with SN12C renal, with SR leukemia, in the assay with TK-10 renal and in the assay with UACC-62 melanoma was over 100 µM in each case.

`COc1cc(C(=O)O)c(-c2cc3c(cc2C=O)OCO3)c(OC)c1OC`: the TGI in the assay on A549 NSCLC, in the assay with ACHN renal, in the assay on CCRF-CEM leukemia, in the assay on HCC-2998 colon, in the assay with HCT-116 colon and in the assay on HCT-15 colon was over 10 µM throughout. For the same compound, the TGI in the assay on M14 melanoma, with MCF7 breast, with SF-268 CNS, in the assay with SF-539 CNS, with SK-MEL-5 melanoma and in the assay on SN12C renal was over 10 µM in each case. The TGI in the assay with SR leukemia, with TK-10 renal and in the assay on UACC-62 melanoma was over 10 µM throughout.

For the compound `C/C(N)=N/OCc1nc(C)no1`, the TGI in the assay on A549 NSCLC, in the assay on ACHN renal, in the assay on CCRF-CEM leukemia, in the assay with EKVX NSCLC, in the assay with HCC-2998 colon and with HCT-116 colon was over 100 µM in each case. Moreover, the TGI with HCT-15 colon, in the assay on M14 melanoma, with MCF7 breast, in the assay with SF-268 CNS, in the assay with SF-539 CNS and in the assay on SK-MEL-5 melanoma was over 100 µM throughout. In addition, the TGI in the assay with SN12C renal, with SR leukemia, in the assay with TK-10 renal, with UACC-62 melanoma and in the assay on UO-31 renal was over 100 µM each time.

`CC(=O)N(CC(=O)C(=O)NNc1ccoc1)c1ccc(Cl)cc1`: the TGI with A549 NSCLC, with ACHN renal, with CCRF-CEM leukemia, in the assay on EKVX NSCLC, in the assay on HCC-2998 colon and in the assay on HCT-116 colon was over 100 µM throughout. In addition, the TGI with HCT-15 colon, in the assay with M14 melanoma, in the assay with MCF7 breast, with NCI-H226 lung, with SF-268 CNS and in the assay with SF-539 CNS was over 100 µM each time. For the same compound, the TGI in the assay with SK-MEL-2 melanoma, in the assay on SK-MEL-5 melanoma, in the assay with SN12C renal, in the assay with SR leukemia, in the assay on TK-10 renal and in the assay on UO-31 renal was over 100 µM throughout.

Regarding `CCC(=O)C(CCN1CCC(N2C(=O)C(CCC#N)c3ccccc32)CC1)(c1ccccc1)c1ccccc1` (stereo not drawn), the TGI with A498 renal stood at 40.1 µM; with A549 NSCLC, 31.7 µM; with ACHN renal it was 43.8 µM; in the assay with HCC-2998 colon, 25.2 µM; in the assay on HCT-116 colon, 17 µM; in the assay with HCT-15 colon, 26 µM. The TGI in the assay on M14 melanoma was found to be 22.2 µM; in the assay with MCF7 breast it was 25.5 µM; in the assay on NCI-H226 lung, 32.6 µM; with SF-268 CNS, 34.5 µM; with SF-539 CNS, 34.5 µM; in the assay on SK-MEL-2 melanoma, 29.7 µM. The TGI in the assay with SK-MEL-5 melanoma is 22.1 µM; in the assay with SN12C renal, 34 µM; in the assay with SR leukemia it was 10.2 µM; with TK-10 renal, 31.2 µM; in the assay on UACC-62 melanoma, 32.6 µM; in the assay on UO-31 renal, 21.4 µM.

For `CCC(C)N1CN(c2ccccc2)C2(CCN(CCCSc3ccc(F)cc3)CC2)C1=O` (stereo not drawn), the TGI stood at 15.1 µM in the assay with A549 NSCLC; 9.76 µM with ACHN renal; 7.22 µM in the assay with CCRF-CEM leukemia; 10.4 µM with EKVX NSCLC; 4.22 µM with HCC-2998 colon; 10.1 µM in the assay on HCT-116 colon. Besides, the TGI in the assay with HCT-15 colon came out at 4.2 µM; in the assay with M14 melanoma, 7.08 µM; in the assay with MCF7 breast, 11.1 µM; with NCI-H226 lung, 17 µM; in the assay with SF-268 CNS, 23.7 µM; in the assay on SF-539 CNS it was 6.32 µM. Also, the TGI is 4.62 µM in the assay with SK-MEL-5 melanoma; over 100 µM in the assay with SN12C renal; 46.7 µM in the assay with SR leukemia; 11.2 µM in the assay with TK-10 renal; 17.5 µM with UACC-62 melanoma; 6.61 µM with UO-31 renal.

With `C[C@@]1(OC(=O)c2cc([N+](=O)[O-])cc([N+](=O)[O-])c2)C[C@@H]2CCCC[C@@H]21`, the TGI in the assay on A549 NSCLC, with ACHN renal, in the assay with CCRF-CEM leukemia, with EKVX NSCLC, in the assay on HCC-2998 colon and in the assay on HCT-116 colon was over 100 µM each time. Further, the TGI in the assay with HCT-15 colon, with M14 melanoma, in the assay on MCF7 breast, in the assay with NCI-H226 lung, in the assay with SF-268 CNS and in the assay on SF-539 CNS was over 100 µM throughout. Further, the TGI in the assay on SK-MEL-2 melanoma, in the assay on SK-MEL-5 melanoma, with SN12C renal, with SR leukemia, in the assay with TK-10 renal and in the assay with UACC-62 melanoma was over 100 µM each time. The compound further showed a TGI in the assay with UO-31 renal of over 100 µM.

`O=C(/C=C(\Nc1ccccc1O)c1ccc(Br)cc1)C(Cl)(Cl)Cl`: the TGI in the assay with A549 NSCLC turned out to be 12.4 µM; in the assay with ACHN renal, 14.9 µM; in the assay with CCRF-CEM leukemia it was 36.7 µM; in the assay with EKVX NSCLC it was 13.9 µM; in the assay with HCC-2998 colon, 5.88 µM; in the assay with HCT-116 colon it was 22.4 µM. Moreover, the TGI stood at 25.9 µM in the assay on HCT-15 colon; 29.2 µM in the assay with M14 melanoma; 20 µM with MCF7 breast; 26.5 µM with NCI-H226 lung; 25.8 µM in the assay with SF-268 CNS; 27.1 µM with SF-539 CNS. Besides, the TGI in the assay with SK-MEL-2 melanoma is 20.7 µM; in the assay on SK-MEL-5 melanoma, 27.7 µM; with SN12C renal, 20 µM; with SR leukemia, 36.7 µM; with TK-10 renal it was 19.1 µM; in the assay with UACC-62 melanoma, 26.3 µM. Also, the TGI in the assay with UO-31 renal was 10.8 µM.

Turning to `CCN1C[C@]2(C)CC[C@H](OC)C34C5C[C@@H]6[C@@H](OC)C[C@@](OC)(C5[C@H]6OCc5ccccc5)C(C13)[C@H](OC(C)=O)[C@@H]42` (stereo partly drawn), the TGI in the assay with A498 renal, with A549 NSCLC, in the assay with ACHN renal, in the assay with CCRF-CEM leukemia, in the assay with EKVX NSCLC and with HCT-116 colon was over 100 µM each time. In addition, the TGI in the assay on HCT-15 colon, in the assay with M14 melanoma, with MCF7 breast, in the assay with NCI-H226 lung, with SF-268 CNS and in the assay on SF-539 CNS was over 100 µM each time. In addition, the TGI in the assay with SK-MEL-2 melanoma, with SK-MEL-5 melanoma, in the assay on SN12C renal, in the assay on SR leukemia, in the assay with TK-10 renal and in the assay with UACC-62 melanoma was over 100 µM in each case. In the assay with UO-31 renal, this compound had a TGI of over 100 µM.

Regarding `CN(CCNC(=S)c1cn(C)c2c1ccc1ccccc12)CCNC(=S)c1cn(C)c2c1ccc1ccccc12`, the TGI with A549 NSCLC, in the assay with ACHN renal, in the assay on CCRF-CEM leukemia, in the assay on EKVX NSCLC, in the assay on HCC-2998 colon and in the assay on HCT-116 colon was over 100 µM each time. In addition, the TGI in the assay with HCT-15 colon, in the assay with MCF7 breast, in the assay on SF-268 CNS, with SF-539 CNS, in the assay with SK-MEL-2 melanoma and with SK-MEL-5 melanoma was over 100 µM throughout. In addition, the TGI in the assay with SN12C renal, with SR leukemia, with TK-10 renal, in the assay on UACC-62 melanoma and with UO-31 renal was over 100 µM throughout.

Regarding `CCOC(=O)/C=C/C1(CCOC(C)=O)CCCCC1`, the TGI in the assay with A549 NSCLC, in the assay with ACHN renal, in the assay on CCRF-CEM leukemia, in the assay with EKVX NSCLC, in the assay on HCC-2998 colon and in the assay on HCT-116 colon was over 10 µM each time. For the same compound, the TGI with HCT-15 colon, in the assay with M14 melanoma, in the assay with MCF7 breast, in the assay on NCI-H226 lung, in the assay on SF-268 CNS and with SF-539 CNS was over 10 µM each time. Also, the TGI in the assay on SK-MEL-2 melanoma, in the assay with SK-MEL-5 melanoma, in the assay with SN12C renal, with SR leukemia, in the assay on TK-10 renal and with UACC-62 melanoma was over 10 µM throughout. Moreover, the TGI with UO-31 renal was over 10 µM.

As to `Nc1c(Cl)cc(-c2nc3ccccc3s2)cc1Cl`, the TGI with A549 NSCLC, in the assay on ACHN renal, with CCRF-CEM leukemia, in the assay on EKVX NSCLC, in the assay on HCC-2998 colon and in the assay with HCT-116 colon was over 100 µM each time. Besides, the TGI in the assay with HCT-15 colon, with M14 melanoma, in the assay on MCF7 breast, in the assay with NCI-H226 lung, in the assay on SF-268 CNS and with SF-539 CNS was over 100 µM in each case. The TGI in the assay with SK-MEL-2 melanoma, in the assay on SK-MEL-5 melanoma, in the assay with SN12C renal, with SR leukemia, in the assay with TK-10 renal and in the assay with UACC-62 melanoma was over 100 µM in each case. The TGI in the assay with UO-31 renal was over 100 µM.

As to `O/N=C1/CCCc2nonc21`, the TGI in the assay with A549 NSCLC, with ACHN renal, in the assay with CCRF-CEM leukemia, in the assay on EKVX NSCLC, in the assay with HCC-2998 colon and in the assay on HCT-116 colon was over 100 µM each time. The TGI in the assay with HCT-15 colon, in the assay on M14 melanoma, in the assay on MCF7 breast, in the assay on NCI-H226 lung, in the assay with SF-268 CNS and in the assay on SF-539 CNS was over 100 µM each time. Moreover, the TGI in the assay with SK-MEL-2 melanoma, with SK-MEL-5 melanoma, in the assay with SN12C renal, in the assay with SR leukemia, in the assay with TK-10 renal and in the assay on UACC-62 melanoma was over 100 µM in each case. The TGI in the assay with UO-31 renal was over 100 µM.

For the compound `COc1ccc(-n2c(C)nc3ccc(NC4OC(CO)C(O)C(O)C4O)cc3c2=O)cc1` (stereo not drawn), the TGI in the assay with A498 renal, in the assay with ACHN renal, in the assay with EKVX NSCLC, in the assay on HCC-2998 colon, in the assay with HCT-116 colon and in the assay on HCT-15 colon was over 100 µM throughout. Besides, the TGI in the assay on MCF7 breast, with NCI-H226 lung, in the assay on SF-268 CNS, in the assay on SK-MEL-2 melanoma, with SK-MEL-5 melanoma and in the assay on SN12C renal was over 100 µM throughout. Moreover, the TGI in the assay with SR leukemia, in the assay with TK-10 renal, in the assay on UACC-62 melanoma and in the assay with UO-31 renal was over 100 µM each time.

For `O=C1/C(=C/c2cccs2)NC(=S)N1CN1CCCCC1`, the TGI with A498 renal, in the assay with A549 NSCLC, in the assay on ACHN renal, in the assay on CCRF-CEM leukemia, in the assay on EKVX NSCLC and with HCT-116 colon was over 100 µM throughout. The TGI with HCT-15 colon, in the assay with M14 melanoma, with MCF7 breast, with NCI-H226 lung, in the assay with SF-268 CNS and in the assay on SK-MEL-2 melanoma was over 100 µM in each case. For the same compound, the TGI with SK-MEL-5 melanoma, in the assay on SN12C renal, in the assay on SR leukemia, with TK-10 renal, with UACC-62 melanoma and with UO-31 renal was over 100 µM each time.
